Structures can show the parent of a compound that is named as a salt.
Molecular target: LSD1 (Homo sapiens, UniProt O60341)
Assay: Biochemical assay for LSD1 activity (LSD1 demethylase TR-FRET)
Conditions: Table 6; biotinylated H3K4me1 peptide, 50 minutes at room temperature, TR-FRET; read-out: LSD1_Pep_TR-FRET_1.0 (IC50 T50)

`CC/C(=C\c1ccccc1)[C@@H]1C[C@H]1N[C@H]1CC[C@@H](NCc2ccc(C(=O)O)cc2)CC1` (racemic) [Compound 176, 4-((((trans)-4-(((trans)-2-((E)-1-phenylbut-1-en-2-yl)cyclopropyl)amino)cyclohexyl)amino)methyl)benzoic Acid Dihydrochloride] and `CC/C(=C\c1ccccc1)[C@@H]1C[C@H]1N[C@H]1CC[C@H](NCc2ccc(C(=O)O)cc2)CC1` (racemic) [Compound 218, 4-((((trans)-4-(((trans)-2-((E)-1-phenylbut-1-en-2-yl)cyclopropyl)amino)cyclohexyl)amino)methyl)benzoic Acid Dihydrochloride] cannot be ordered by IC50: less than 100 nM for the first, less than 100 nM for the second.

`CC(C)/C(=C\c1ccccc1)[C@H]1C[C@@H]1N[C@H]1CC[C@H](N)CC1` (racemic) [Compound 178, (trans)-N^1-((trans)-2-(E)-3-methyl-1-phenylbut-1-en-2-yl)cyclopropyl)cyclohexane-1,4-diamine Dihydrochloride] and `CC/C(=C\c1ccccc1)[C@@H]1C[C@H]1N[C@H]1CC[C@H](NCC(=O)O)CC1` (racemic) [Compound 182, 2-(((trans)-4-(((trans)-2-((E)-1-phenylbut-1-en-2-yl)cyclopropyl)amino)cyclohexyl)amino)acetic acid] cannot be ordered by IC50: less than 100 nM for the first, less than 100 nM for the second.

Compared with `CC(C)/C(=C\c1ccccc1)[C@@H]1C[C@H]1NC1CCN(Cc2ccc(C(=O)O)cc2)CC1` (racemic) [Compound 179, 4-((4-(((trans)-2-((E)-3-methyl-1-phenylbut-1-en-2-yl)cyclopropyl)amino)piperidin-1-yl)methyl)benzoic Acid bis(trifluoroacetic Acid) Salt], `C/C(=C\c1ccccc1)[C@@H]1C[C@H]1NC1CCN(CCc2ccc(C(=O)O)cc2)CC1` (racemic) [Compound 206, 4-(2-(4-(((trans)-2-((E)-1-phenylprop-1-en-2-yl)cyclopropyl)amino)piperidin-1-yl)ethyl)benzoic Acid Dihydrochloride] is higher in IC50: less than 100 nM for the first, 100 to 1000 nM for the second.

`CC/C(=C\c1ccccc1)[C@@H]1C[C@H]1N[C@H]1CC[C@@H](NCC(=O)O)CC1` (racemic) [Compound 183, 2-(((cis)-4-(((trans)-2-((E)-1-phenylbut-1-en-2-yl)cyclopropyl)amino)cyclohexyl)amino)acetic Acid] and `CC/C(=C\c1ccccc1)[C@@H]1C[C@H]1N[C@H]1CC[C@H](NCC2(C(=O)O)CC2)CC1` (racemic) [Compound 223, 1-((((trans)-4-(((trans)-2-((E)-1-phenylbut-1-en-2-yl)cyclopropyl)amino)cyclohexyl)amino)methyl)cyclopropane-1-carboxylic Acid] cannot be ordered by IC50: less than 100 nM for the first, less than 100 nM for the second.

`COCC/C(=C\c1ccccc1)[C@@H]1C[C@H]1N[C@H]1CC[C@H](NCC(C)(C)C(=O)O)CC1` (racemic) [Compound 184, 3-(((trans)-4-(((trans)-2-((E)-4-methoxy-1-phenylbut-1-en-2-yl)cyclopropyl)amino)cyclohexyl)amino)-2,2-dimethylpropanoic Acid bis(trifluoroacetic Acid) Salt] and `COCC/C(=C\c1ccccc1)[C@@H]1C[C@H]1NC1CCC(NCc2ccc(C(=O)O)nc2)CC1` (mixture of isomers) [Compound 185, 5-((((trans)-4-(((trans)-2-((E)-4-methoxy-1-phenylbut-1-en-2-yl)cyclopropyl)amino)cyclohexyl)amino)methyl)picolinic Acid bis(trifluoroacetic Acid) Salt] cannot be ordered by IC50: less than 100 nM for the first, less than 100 nM for the second.

`C/C(=C\c1ccccc1)[C@@H]1C[C@H]1NC1CCN(CC(=O)O)CC1` (racemic) [Compound 194, 2-(4-(((trans)-2-((E)-1-phenylprop-1-en-2-yl)cyclopropyl)amino)piperidin-1-yl)acetic Acid Dihydrochloride] and `C/C(=C\c1ccccc1)[C@@H]1C[C@H]1NC1CCN(CC(N)=O)CC1` (racemic) [Compound 196, 2-(4-(((trans)-2-((E)-1-phenylprop-1-en-2-yl)cyclopropyl)amino)piperidin-1-yl)acetamide Dihydrochloride] cannot be ordered by IC50: less than 100 nM for the first, less than 100 nM for the second.

`C/C(=C\c1ccccc1)[C@@H]1C[C@H]1NC1CCN(CCC(=O)N(C)C)CC1` (racemic) [Compound 198, N,N-dimethyl-3-(4-(((trans)-2-((E)-1-phenylprop-1-en-2-yl)cyclopropyl)amino)piperidin-1-yl)propanamide Dihydrochloride] and `C/C(=C\c1ccccc1)[C@@H]1C[C@H]1NC1CCN(CCC(=O)O)CC1` (racemic) [Compound 199, 3-(4-(((trans)-2-((E)-1-phenylprop-1-en-2-yl)cyclopropyl)amino)piperidin-1-yl)propanoic Acid Dihydrochloride] cannot be ordered by IC50: less than 100 nM for the first, less than 100 nM for the second.

`C/C(=C\c1ccccc1)[C@@H]1C[C@H]1NC1CCN(Cc2ccc(C(=O)O)nc2)CC1` (racemic) [Compound 200, 5-((4-(((trans)-2-((E)-1-phenylprop-1-en-2-yl)cyclopropyl)amino)piperidin-1-yl)methyl)picolinic Acid Dihydrochloride] and `C/C(=C\c1ccccc1)[C@@H]1C[C@H]1NC1CCN(Cc2ccc(C(=O)O)cn2)CC1` (racemic) [Compound 203, 6-((4-(((trans)-2-((E)-1-phenylprop-1-en-2-yl)cyclopropyl)amino)piperidin-1-yl)methyl)nicotinic Acid Dihydrochloride] cannot be ordered by IC50: less than 100 nM for the first, less than 100 nM for the second.

First: C/C(=C\c1ccccc1)[C@@H]1C[C@H]1NC1CCN(CCO)CC1 (racemic) [Compound 201, 2-(4-(((trans)-2-((E)-1-phenylprop-1-en-2-yl)cyclopropyl)amino)piperidin-1-yl)ethan-1-ol Dihydrochloride]
Second: C/C(=C\c1ccccc1)[C@@H]1C[C@H]1NC1CCN(CCOCC(=O)O)CC1 (racemic) [Compound 204, 2-(2-(4-(((trans)-2-((E)-1-phenylprop-1-en-2-yl)cyclopropyl)amino)piperidin-1-yl)ethoxy)acetic Acid Dihydrochloride]
The IC50 of the first is lower: less than 100 nM for the first, greater than 10000 nM for the second.

`C/C(=C\c1ccccc1)[C@@H]1C[C@H]1NC1CCN(CCNS(C)(=O)=O)CC1` (racemic) [Compound 205, N-(2-(4-(((trans)-2-(E)-1-phenylprop-1-en-2-yl)cyclopropyl)amino)piperidin-1-yl)ethyl)methanesulfonamide Dihydrochloride] and `CC/C(=C\c1ccccc1)[C@@H]1C[C@H]1N[C@H]1CC[C@H](N(C)CCC(=O)O)CC1` (racemic) [Compound 212, 3-(methyl((trans)-4-(((trans)-2-((E)-1-phenylbut-1-en-2-yl)cyclopropyl)amino)cyclohexyl)amino)propanoic Acid Dihydrochloride] cannot be ordered by IC50: less than 100 nM for the first, less than 100 nM for the second.

First: CC/C(=C\c1ccccc1)[C@@H]1C[C@H]1NC1CCC(NCc2cnn(CC(=O)O)c2)CC1 (mixture of isomers) [Compound 210, 2-(4-(((4-(((trans)-2-((E)-1-phenylbut-1-en-2-yl)cyclopropyl)amino)cyclohexyl)amino)methyl)-1H-pyrazol-1-yl)acetic Acid Dihydrochloride]
Second: CC/C(=C\c1ccccc1)[C@@H]1C[C@H]1NC1CCC(NCc2ccc(C(=O)O)nc2)CC1 (mixture of isomers) [Compound 224, 5-((((trans)-4-(((trans)-2-((E)-1-phenylbut-1-en-2-yl)cyclopropyl)amino)cyclohexyl)amino)methyl)picolinic acid]
The IC50 of the first is higher: 100 to 1000 nM for the first, less than 100 nM for the second. The second is the more potent here.

In the case of `CC/C(=C\c1ccccc1)[C@@H]1C[C@H]1N[C@H]1CC[C@@H](N(C)CCC(=O)O)CC1` (racemic) [Compound 213, 3-(methyl((cis)-4-(((trans)-2-((E)-1-phenylbut-1-en-2-yl)cyclopropyl)amino)cyclohexyl)amino)propanoic Acid Dihydrochloride], the IC50 is reported as 100 to 1000 nM.

Same assay, conditions: Table 7; biotinylated H3K4me1 peptide, 50 minutes at room temperature, TR-FRET; read-out: LSD1_Pep_TR-FRET_1.0 (IC50 T50)

`CC/C(=C\c1ccccc1)[C@@H]1C[C@H]1NC1CC2(CCN(CCC(=O)O)CC2)C1` (racemic) [Compound 225, 3-(2-(((trans)-2-((E)-1-phenylbut-1-en-2-yl)cyclopropyl)amino)-7-azaspiro[3.5]nonan-7-yl)propanoic Acid Bis Trifluoroacetate] and `CC/C(=C\c1ccccc1)[C@@H]1C[C@H]1NC1CC2(C1)CN(CCC(=O)O)C2` (racemic) [Compound 230] cannot be ordered by IC50: less than 100 nM for the first, less than 100 nM for the second.

`CC/C(=C\c1ccccc1)[C@@H]1C[C@H]1NC1CC2(C1)CN(Cc1ccc(C(=O)O)cc1)C2` (racemic) [Compound 226, 4-((6-(((trans)-2-((E)-1-phenylbut-en-2-yl)cyclopropyl)amino)-2-azaspiro[3.3]heptan-2-yl)methyl)benzoic acid bis trifluoroacetate] and `CC/C(=C\c1ccccc1)[C@@H]1C[C@H]1NC1CC2(CCN(Cc3ccc(C(=O)O)cc3)CC2)C1` (racemic) [Compound 227, 4-((2-(((trans)-2-((E)-1-phenylbut-1-en-2-yl)cyclopropyl)amino)-7-azaspiro[3.5]nonan-7-yl)methyl)benzoic acid dihydrochloride] cannot be ordered by IC50: less than 100 nM for the first, less than 100 nM for the second.

`CC/C(=C\c1ccccc1)[C@@H]1C[C@H]1NC1CC2(CCN(CC(C)(C)C(=O)O)CC2)C1` (racemic) [Compound 228, 2,2-dimethyl-3-(2-(((trans)-2-(E)-1-phenylbut-1-en-2-yl)cyclopropyl)amino)-7-azaspiro[3.5]nonan-7-yl)propanoic Acid Bis Trifluoroacetate] and `CC/C(=C\c1ccccc1)[C@@H]1C[C@H]1NC1CC2(C1)CN(CC(C)(C)C(=O)O)C2` (racemic) [Compound 229] cannot be ordered by IC50: less than 100 nM for the first, less than 100 nM for the second.

`CC/C(=C\c1ccccc1)[C@@H]1C[C@H]1NC1CC2(C1)CN(Cc1ccc(C(=O)O)nc1)C2` (racemic) [Compound 231] and `CC/C(=C\c1ccccc1)[C@@H]1C[C@H]1NCC1(C)CN(Cc2ccc(C(=O)O)cc2)C1` (racemic) [Compound 235] cannot be ordered by IC50: less than 100 nM for the first, less than 100 nM for the second.

First: CC/C(=C\c1ccccc1)[C@@H]1C[C@H]1NC[C@H]1CC[C@H](NCC(C)(C)C(=O)O)CC1 (racemic) [Compound 232]
Second: CC/C(=C\c1ccccc1)[C@@H]1C[C@H]1NC[C@H]1C[C@H](NCC(C)(C)C(=O)O)C1 (racemic) [Compound 233]
The IC50 of the first is higher: 100 to 1000 nM for the first, less than 100 nM for the second.

Reference: patent US10526287B2, “LSD1 inhibitors and uses thereof” (Constellation Pharmaceuticals, Inc., priority 2015, dated 2020)
